In brackets after ≈: the same amount, converted by molar mass. Several values for one entry are separate records, joined by “and”; a condition that tells them apart may be missing. Equal entries are not always repeated. Blank lines part the entries; values can stand above or below the compound they belong to.
What was measured:
Assay in all cases: ≥ marks a high value that may be exact or a test limit, other limits are often not marked, values filed in µg/mL are converted to µM
Candida krusei ATCC 6258 = system: Candida krusei ATCC 6258
[1] = system: Candida parapsilosis ATCC 22019
[2] = system: Candida tropicalis ATCC 13803
[3] = system: Candida glabrata ATCC 15126
Candida albicans SC5314 = system: Candida albicans SC5314
[4] = system: Staphylococcus epidermidis ATCC 35984
[5] = system: Staphylococcus aureus ATCC 25923
[6] = system: Escherichia coli ATCC 25922
[7] = system: Klebsiella pneumoniae ATCC 700603
[8] = system: Pseudomonas aeruginosa ATCC 27853
[9] = system: Enterococcus faecalis ATCC 29212
[10] = system: Acinetobacter baumannii ATCC 19606
[11] = system: Enterococcus faecium ATCC 700221
Escherichia coli UB1005 = system: Escherichia coli UB1005
[12] = system: Staphylococcus aureus ATCC 29213
[13] = system: Staphylococcus epidermidis ATCC 12228
[14] = system: Salmonella typhimurium ATCC 7731
[15] = system: Pseudomonas aeruginosa PAO1
[16] = system: Salmonella enterica subsp. enterica serovar Typhimurium C77-31
[17] = system: Salmonella enterica subsp. enterica serovar Pullorum C79-13
[18] = system: Salmonella enterica subsp. enterica serovar Typhimurium ATCC 14028
[19] = system: Bacillus subtilis CMCC 63501
[20] = system: Escherichia coli DH5alpha
Staphylococcus xylosus = system: Staphylococcus xylosus
[21] = system: Enterococcus faecium mic80
[22] = system: Pseudomonas aeruginosa 213
[23] = system: Pseudomonas aeruginosa H103
[24] = system: Staphylococcus aureus C623
[25] = system: Pseudomonas aeruginosa LES400
Candida albicans C627 = system: Candida albicans C627
[26] = system: Escherichia coli ESBL 63103
[27] = system: Staphylococcus aureus NBRC 12732
[28] = system: Saccharomyces cerevisiae NBRC 10217
[29] = system: Escherichia coli NBRC 14237
[30] = system: Micrococcus luteus NBRC 12708
[31] = system: Micrococcus luteus CVCC 28001
Escherichia coli K88 = system: Escherichia coli K88
[32] = system: Escherichia coli CVCC 245
[33] = system: Staphylococcus aureus CMCC 26003
[34] = system: Listeria monocytogenes CVCC 1599
[35] = system: Staphylococcus aureus ATCC BAA-44
[36] = system: Klebsiella pneumoniae ATCC 13883
Listeria ivanovii = system: Listeria ivanovii
[37] = system: Candida albicans ATCC 90028

MIC (Candida krusei ATCC 6258): ≥ 44 µM
MIC [1]: ≥ 87.9 µM
MIC [2]: ≥ 44 µM
MIC [3]: 22 µM (≈ 25 µg/mL)
MIC (Candida albicans SC5314): ≥ 87.9 µM
SMILES: CC(C)C[C@H](NC(=O)[C@H](CC(C)C)NC(=O)[C@H](Cc1ccc(O)cc1)NC(=O)[C@H](CCCCN)NC(=O)[C@@H](N)CS)C(=O)N[C@@H](CCCN=C(N)N)C(=O)N[C@@H](Cc1c[nH]c2ccccc12)C(=O)N[C@@H](CCCN=C(N)N)C(=O)O [CKYLLRWR]

MIC [4]: ≥ 73.6 µM
MIC [5]: 294 µM (≈ 512 µg/mL)
MIC [6]: 147 µM (≈ 256 µg/mL)
MIC [7]: > 294 µM
MIC [8]: > 294 µM
MIC [9]: 294 µM (≈ 512 µg/mL)
MIC [10]: > 294 µM
MIC [11]: ≥ 147 µM
SMILES: CC(C)C[C@H](NC(=O)[C@H](Cc1cnc[nH]1)NC(=O)[C@H](Cc1ccc(O)cc1)NC(=O)[C@H](CCCN=C(N)N)NC(=O)[C@H](Cc1ccc(O)cc1)NC(=O)[C@H](CCCCN)NC(=O)[C@@H](N)CCCCN)C(=O)N[C@@H](CCCCN)C(=O)N1CCC[C@H]1C(=O)N[C@@H](Cc1ccccc1)C(=O)N[C@@H](CS)C(=O)N[C@@H](CCCCN)C(=O)N[C@@H](CCCCN)C(=O)O [KKYRYHLKPFCKK]

MIC (Escherichia coli UB1005): ≥ 128 µM
MIC [12]: > 64 µM and 128 µM
MIC [13]: > 64 µM and 128 µM
MIC [6]: 64 µM and 128 µM
MIC [14]: ≥ 64 µM
MIC [8]: > 64 µM and 128 µM
MIC [15]: > 64 µM
MIC [9]: > 64 µM and 128 µM
MIC [16]: ≥ 128 µM
MIC [17]: ≥ 128 µM
MIC [18]: > 64 µM and 128 µM
MIC [19]: ≥ 64 µM
SMILES: CC[C@H](C)[C@H](NC(=O)[C@H](CCCCN)NC(=O)[C@H](CCCCN)NC(=O)[C@H](Cc1ccccc1)NC(=O)[C@H](CC(C)C)NC(=O)[C@H](CCCCN)NC(=O)[C@H](Cc1c[nH]c2ccccc12)NC(=O)[C@@H](N)CCCCN)C(=O)O [KWKLFKKI]

MIC [20]: 4 µM (≈ 6.76 µg/mL)
MIC (Staphylococcus xylosus): 0.5 µM (≈ 0.846 µg/mL)
SMILES: NC(N)=NCCC[C@H](NC(=O)[C@H](CCCN=C(N)N)NC(=O)[C@H](CCCN=C(N)N)NC(=O)[C@H](Cc1ccccc1)NC(=O)[C@H](Cc1ccccc1)NC(=O)[C@H](Cc1ccccc1)NC(=O)[C@H](Cc1ccccc1)NC(=O)[C@H](Cc1ccccc1)NC(=O)[C@H](CCCN=C(N)N)NC(=O)[C@H](CCCN=C(N)N)NC(=O)[C@@H](N)CCCN=C(N)N)C(=O)O [RRRFFFFFRRR]

MIC [21]: ≥ 88.6 µM
MIC [22]: ≥ 88.6 µM
MIC [5]: 88.6 µM (≈ 128 µg/mL)
MIC [23]: ≥ 88.6 µM
MIC [24]: ≥ 44.3 µM
MIC [25]: ≥ 88.6 µM
MIC (Candida albicans C627): 22.1 µM (≈ 32 µg/mL)
MIC [26]: ≥ 44.3 µM
SMILES: CC[C@H](C)[C@H](N)C(=O)N[C@@H](Cc1c[nH]c2ccccc12)C(=O)N[C@@H](CCCCN)C(=O)N[C@@H](CCCN=C(N)N)C(=O)N[C@@H](Cc1c[nH]c2ccccc12)C(=O)N[C@@H](Cc1c[nH]c2ccccc12)C(=O)N[C@@H](Cc1c[nH]c2ccccc12)C(=O)N[C@@H](CCCCN)C(=O)N[C@@H](CCCN=C(N)N)C(=O)O [IWKRWWWKR]

MIC [27]: 3.12 µM (≈ 5.93 µg/mL)
MIC [28]: 25 µM (≈ 47.5 µg/mL)
MIC [29]: 3.12 µM (≈ 5.93 µg/mL)
MIC [30]: 6.25 µM (≈ 11.9 µg/mL)
SMILES: CC[C@H](C)[C@H](NC(=O)[C@H](CC(C)C)NC(=O)[C@@H]1CCCN1C(=O)[C@H](CC(C)C)NC(=O)[C@H](CCCCN)NC(=O)[C@H](CCCCN)NC(=O)[C@H](CC(C)C)NC(=O)[C@H](CC(C)C)NC(=O)[C@H](C)NC(=O)[C@@H](NC(=O)[C@H](Cc1ccccc1)NC(=O)CN)C(C)C)C(=O)N[C@@H](CC(C)C)C(=O)N[C@@H](CCCCN)C(=O)N[C@@H](Cc1cnc[nH]1)C(=O)N[C@@H](CC(C)C)C(=O)N1CCC[C@H]1C(N)=O [GFVALLKKLPLILKHLP]

MIC [31]: 5.51 µM (≈ 16 µg/mL)
MIC [5]: 0.688 µM (≈ 2 µg/mL)
MIC (Escherichia coli K88): 2.75 µM (≈ 8 µg/mL)
MIC [32]: 2.41 µM (≈ 7 µg/mL)
MIC [33]: 2.41 µM (≈ 7 µg/mL)
MIC [34]: 0.688 µM (≈ 2 µg/mL)
SMILES: CC[C@H](C)[C@H](NC(=O)[C@H](CCCCN)NC(=O)[C@H](CCCCN)NC(=O)[C@H](Cc1ccccc1)NC(=O)[C@H](CC(C)C)NC(=O)[C@H](CCCCN)NC(=O)[C@H](Cc1c[nH]c2ccccc12)NC(=O)[C@@H](N)CCCCN)C(=O)N[C@@H](Cc1ccccc1)C(=O)N[C@@H](CCCCN)C(=O)N[C@@H](CCCN=C(N)N)C(=O)N[C@H](C(=O)N[C@H](C(=O)N[C@@H](CCC(N)=O)C(=O)N[C@@H](CCCN=C(N)N)C(=O)N[C@H](C(=O)N[C@@H](CCCCN)C(=O)N[C@@H](CC(=O)O)C(=O)N[C@@H](Cc1ccccc1)C(=O)N[C@@H](CC(C)C)C(=O)N[C@@H](CCCN=C(N)N)C(=O)N[C@@H](CC(N)=O)C(=O)O)[C@@H](C)CC)C(C)C)[C@@H](C)CC [KWKLFKKIFKRIVQRIKDFLRN]

MIC [1]: ≥ 50 µM
MIC [5]: 3 µM (≈ 7.64 µg/mL)
MIC [35]: 3 µM (≈ 7.64 µg/mL)
MIC [6]: 4.24 µM (≈ 10.8 µg/mL)
MIC [36]: 6 µM (≈ 15.3 µg/mL)
MIC (Listeria ivanovii): 3 µM (≈ 7.64 µg/mL)
MIC [8]: 6 µM (≈ 15.3 µg/mL)
MIC [9]: 12.5 µM (≈ 31.8 µg/mL)
MIC [37]: 25 µM (≈ 63.7 µg/mL)
MIC [10]: 3 µM (≈ 7.64 µg/mL)
SMILES: CC(C)C[C@H](NC(=O)[C@H](CCCN=C(N)N)NC(=O)CNC(=O)[C@H](Cc1ccccc1)NC(=O)[C@@H](N)Cc1ccccc1)C(=O)N[C@@H](CCCCN)C(=O)N[C@@H](CO)C(=O)N[C@H](C(=O)N[C@@H](Cc1c[nH]c2ccccc12)C(=O)N[C@@H](CO)C(=O)N[C@@H](C)C(=O)N[C@H](C(=O)N[C@@H](CCCCN)C(=O)N[C@@H](Cc1cnc[nH]1)C(=O)NCC(=O)N[C@@H](Cc1c[nH]c2ccccc12)C(=O)N[C@@H](CCCCN)C(=O)N[C@@H](C)C(=O)N[C@@H](C)C(=O)N[C@@H](CCCCN)C(=O)N[C@@H](CO)C(=O)N[C@@H](CCCN=C(N)N)C(=O)O)C(C)C)C(C)C [FFGRLKSVWSAVKHGWKAAKSR]

Source: DBAASP
